Experimental data from PubChem BioAssay AID743133 (The Scripps Research Institute Molecular Screening Center, 2013).

Molecular target: Acyl-protein thioesterase 1 (Homo sapiens) + Acyl-protein thioesterase 2 (Homo sapiens) (UniProt O75608+O95372)
Assay: covalent versus reversible binding mode of APT1/APT2 inhibitors – cell lysate, HeLa lysate, fluorescence gel ABPP, mechanism study for LYPLA1/LYPLA2 inhibitor project, late-stage follow-up (AID 743133)
Conditions: HeLa lysate gel-based ABPP, FP-Rh; for recovery after gel filtration: stronger effect = lower value; for inhibition: gel filtration, stronger effect = higher value

Acyl-protein thioesterase 1 (Homo sapiens) + Acyl-protein thioesterase 2 (Homo sapiens), sequence (O75608 whole entry, looked up, one chain of several): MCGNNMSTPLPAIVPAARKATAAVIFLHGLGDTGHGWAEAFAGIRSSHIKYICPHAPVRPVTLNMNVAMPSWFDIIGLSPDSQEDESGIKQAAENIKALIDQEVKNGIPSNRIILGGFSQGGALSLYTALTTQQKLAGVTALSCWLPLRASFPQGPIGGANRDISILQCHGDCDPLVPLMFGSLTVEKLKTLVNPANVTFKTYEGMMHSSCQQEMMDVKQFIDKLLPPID

`O=C(ON1C(=O)C2CN(C(=O)N3CCOCC3)CCN2C1=O)N1CCC(CCc2ccc(Cl)cc2)CC1` (stereo unspecified) was tested, and the recovery after gel filtration (at 0.2 µM) was 0%, the recovery after gel filtration (at 1 µM) was 0% and the inhibition (at 0.2 µM, post-gel filtration inhibition) was 85%. For the same compound, the inhibition (at 0.2 µM, pre-gel filtration inhibition) was 85%, the inhibition (at 1 µM, post-gel filtration inhibition) was 95% and the inhibition (at 1 µM, pre-gel filtration inhibition) was 95%.
